Data on three molecules can be found in paper PMC5482243 (Investigative Ophthalmology & Visual Science, 2017).

Where two headings read alike, the source gives them in different places.

Test in all cases: β-arrestin recruitment assay
Common to all, as to type: cell-based
(In general: Recruitment of arrestin is a read-out of receptor activation apart from second messengers.)

Assay [1] concerns the target T1, GPR143 (pm-GPR143) (Homo sapiens, UniProt P51810, E330A/L223A/L224A/W329A).
The target in assay [2] is T1, GPR143 (pm-GPR143). This is another data set of the same source.
For a further assay, the target named is GPR143 (wt-GPR143) (Homo sapiens, UniProt P51810).
GPR143 (wt-GPR143), sequence (P51810 whole entry): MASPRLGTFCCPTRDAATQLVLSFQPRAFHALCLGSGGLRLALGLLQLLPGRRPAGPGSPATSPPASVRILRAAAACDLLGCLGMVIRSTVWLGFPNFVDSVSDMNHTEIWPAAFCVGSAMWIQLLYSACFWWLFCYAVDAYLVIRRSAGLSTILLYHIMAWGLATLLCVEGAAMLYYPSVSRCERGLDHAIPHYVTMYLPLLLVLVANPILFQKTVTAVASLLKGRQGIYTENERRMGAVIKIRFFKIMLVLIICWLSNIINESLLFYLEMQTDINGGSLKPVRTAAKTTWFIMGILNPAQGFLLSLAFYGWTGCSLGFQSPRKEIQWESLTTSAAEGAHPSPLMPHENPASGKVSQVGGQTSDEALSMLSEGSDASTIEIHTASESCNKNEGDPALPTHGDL

T1 sequence (P51810 whole entry L223A/L224A/W329A/E330A): as the sequence (P51810 whole entry) above, with L223A, L224A, W329A, E330A counted along it

By EC50 is commonly meant the concentration needed to bring the measured effect to its halfway point. A low value points to greater potency. Turning to `CCOc1ccc2nc3cc(N)ccc3c(N)c2c1` [ethacridine lactate], the EC50 at GPR143 (pm-GPR143) [1] was 26.1 ± 1.03 µM.

At GPR143 (pm-GPR143) [1], `O=C(Nc1ccc([N+](=O)[O-])cc1Cl)c1cc(Cl)ccc1O` [niclosamide] gave an EC50 of 3.4 ± 1.11 µM.

Regarding `O=c1[nH]c2ccccc2n1C1CCN(CCCC(c2ccc(F)cc2)c2ccc(F)cc2)CC1` [pimozide], the EC50 at GPR143 (pm-GPR143) [2] was 2.72 ± 1.17 µM; on GPR143 (wt-GPR143), 4.62 ± 1.37 µM.
